Where “and” joins values, the source holds several entries; their conditions need not be identical. Identical values can stand only once.

Assay [1] has as its target T1, MAO-B (Homo sapiens, UniProt P27338).
T1 sequence (P27338 1-520): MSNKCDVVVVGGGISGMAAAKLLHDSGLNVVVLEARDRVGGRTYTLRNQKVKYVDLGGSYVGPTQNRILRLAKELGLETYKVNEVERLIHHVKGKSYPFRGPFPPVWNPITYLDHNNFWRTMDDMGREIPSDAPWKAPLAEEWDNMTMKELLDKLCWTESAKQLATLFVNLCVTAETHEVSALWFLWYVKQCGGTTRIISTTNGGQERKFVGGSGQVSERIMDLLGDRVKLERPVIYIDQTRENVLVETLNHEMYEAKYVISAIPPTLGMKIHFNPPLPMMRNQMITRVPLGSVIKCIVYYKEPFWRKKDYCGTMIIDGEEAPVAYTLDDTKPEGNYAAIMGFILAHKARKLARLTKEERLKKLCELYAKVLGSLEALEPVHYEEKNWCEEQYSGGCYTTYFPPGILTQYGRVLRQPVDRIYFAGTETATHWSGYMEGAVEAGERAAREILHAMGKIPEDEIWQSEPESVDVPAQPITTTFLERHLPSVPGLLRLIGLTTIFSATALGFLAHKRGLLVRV
The assay can be described thus: IC50 determination, inhibition of recombinant human MAO-B. It is filed as biochemical. Particulars: for SI (selectivity index, IC50(MAO-A)/IC50(MAO-B)): selectivity for the MAO-B isoform.

The next assay concerns the target T2, recombinant human MAO-A (Homo sapiens, UniProt P21397).
T2 sequence (P21397 1-527): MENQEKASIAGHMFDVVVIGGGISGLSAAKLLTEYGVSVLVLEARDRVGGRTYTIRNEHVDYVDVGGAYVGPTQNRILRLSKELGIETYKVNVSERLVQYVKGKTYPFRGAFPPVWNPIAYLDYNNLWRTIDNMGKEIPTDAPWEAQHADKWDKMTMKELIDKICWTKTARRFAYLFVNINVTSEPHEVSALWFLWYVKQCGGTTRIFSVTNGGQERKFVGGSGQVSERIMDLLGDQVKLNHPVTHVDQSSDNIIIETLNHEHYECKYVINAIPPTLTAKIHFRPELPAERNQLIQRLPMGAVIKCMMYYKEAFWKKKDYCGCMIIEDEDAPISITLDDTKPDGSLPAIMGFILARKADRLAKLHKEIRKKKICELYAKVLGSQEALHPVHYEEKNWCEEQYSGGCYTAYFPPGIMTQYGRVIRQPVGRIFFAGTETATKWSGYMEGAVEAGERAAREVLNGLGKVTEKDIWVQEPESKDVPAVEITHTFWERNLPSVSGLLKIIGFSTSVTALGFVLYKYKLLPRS
Nature of the assay: IC50 determination, inhibition of recombinant human MAO-A. It is filed as biochemical. Particulars: mean ± SD of triplicate determinations.

The target of a further assay is human MAO-B (Homo sapiens, UniProt P27338). Particulars: Lineweaver-Burk graphs linear, intersect on y axis.
In assay [2] the target is T1, MAO-B.

`CC(=O)c1ccc(OCc2ccccc2)cc1O` [Compound 2a, 2-Acetyl-5-benzyloxyphenol]: the “SI (selectivity index, IC50(MAO-A)/IC50(MAO-B))” value at MAO-B [1] is 1,194. Also, the concentration for half-maximal inhibition (IC50) on recombinant human MAO-A came to 8.36 ± 0.442 µM.

As for `CC(=O)c1ccc(OCCc2ccccc2)cc1O` [Compound 2b, 2-Acetyl-5-(2-phenylethoxy)phenol], on MAO-B [1], the IC50 was 0.157 ± 0.041 µM and the “SI (selectivity index, IC50(MAO-A)/IC50(MAO-B))” value is recorded as 30. Also, the IC50 on recombinant human MAO-A came out at 4.7 ± 0.716 µM.

For `CC(=O)c1ccc(OCCCc2ccccc2)cc1O` [Compound 2c, 2-Acetyl-5-(3-phenylpropoxy)phenol], the IC50 came out at 0.06 ± 0.013 µM at MAO-B [1] and 10.7 ± 2.3 µM at recombinant human MAO-A. Also, the “SI (selectivity index, IC50(MAO-A)/IC50(MAO-B))” value on MAO-B [1] turned out to be 178.

With `CC(=O)c1ccc(OCc2cccc(F)c2)cc1O` [Compound 2d, 2-Acetyl-5-(3-fluorobenzyloxy)phenol], the IC50 on recombinant human MAO-A is above 17.7 µM.

For the molecule `CC(=O)c1ccc(OCc2ccc(F)cc2)cc1O` [Compound 2e, 2-Acetyl-5-(4-fluorobenzyloxy)phenol], at human MAO-B, the “Mode of MAO-B inhibition” value is on record as “competitive inhibitor”. Further, at MAO-B [2], the “Reversibility of MAO-B inhibition by dialysis” value was “only partially reversed”. Also, the “Residual MAO-B catalytic activity after dialysis (% of negative control value)” value at MAO-B [2] (inhibitor at 4× IC50, incubated 15 minutes, dialyzed for 24 hours) was found to be 52%.

With `CC(=O)c1ccc(OCc2cccc(Cl)c2)cc1O` [Compound 2f, 2-Acetyl-5-(3-chlorobenzyloxy)phenol], the IC50 at recombinant human MAO-A was above 17.7 µM.

Regarding `CC(=O)c1ccc(OCc2ccc(Cl)cc2)cc1O` [Compound 2g, 2-Acetyl-5-(4-chlorobenzyloxy)phenol], at recombinant human MAO-A, the IC50 was 1.81 ± 0.284 µM.

Turning to `CC(=O)c1ccc(OCc2cccc(I)c2)cc1O` [Compound 2h, 2-Acetyl-5-(3-iodobenzyloxy)phenol], the values for the IC50 on MAO-B [1] and at recombinant human MAO-A were 0.014 ± 0.002 µM and 26.9 ± 1.8 µM, respectively. Further, the “SI (selectivity index, IC50(MAO-A)/IC50(MAO-B))” value on MAO-B [1] was 1,921.

As to `CC(=O)c1ccc(OCc2cccc(C)c2)cc1O` [Compound 2i, 2-Acetyl-5-(3-methylbenzyloxy)phenol], on MAO-B [1], the IC50 came to 0.054 ± 0.01 µM and the “SI (selectivity index, IC50(MAO-A)/IC50(MAO-B))” value is 328. For the same molecule, the IC50 on recombinant human MAO-A was found to be 17.7 ± 2.8 µM.

`CC(=O)c1ccc(OCc2ccc(C)cc2)cc1O` [Compound 2j, 2-Acetyl-5-(4-methylbenzyloxy)phenol]: on MAO-B [1], the IC50 came to 0.026 ± 0.002 µM and the “SI (selectivity index, IC50(MAO-A)/IC50(MAO-B))” value worked out at 969. The IC50 at recombinant human MAO-A came out at 25.2 ± 0.939 µM.

In the case of `CC(=O)c1ccc(OCc2cccc(C#N)c2)cc1O` [Compound 2k, 2-Acetyl-5-(3-cyanobenzyloxy)phenol], at MAO-B [1], the IC50 came out at 0.023 ± 0.0003 µM and the “SI (selectivity index, IC50(MAO-A)/IC50(MAO-B))” value is 71. For the same molecule, the IC50 at recombinant human MAO-A was 1.64 ± 0.213 µM.

`CC(=O)c1ccc(OCc2ccc(C#N)cc2)cc1O` [Compound 2l, 2-Acetyl-5-(4-cyanobenzyloxy)phenol]: on MAO-B [1], the IC50 is 0.004 ± 0.001 µM and the “SI (selectivity index, IC50(MAO-A)/IC50(MAO-B))” value worked out at 680. For the same molecule, the IC50 on recombinant human MAO-A came to 2.72 ± 0.352 µM.

With `CC(=O)c1ccc(OCc2ccc(C(F)(F)F)cc2)cc1O` [Compound 2m, 2-Acetyl-5-[4-(trifluoromethyl)benzyloxy] phenol], at MAO-B [1], the IC50 is 0.01 ± 0.003 µM and the “SI (selectivity index, IC50(MAO-A)/IC50(MAO-B))” value is 1,360. In addition, the IC50 on recombinant human MAO-A worked out at 13.6 ± 0.238 µM.

In the case of `CCCCOc1ccc(C(C)=O)c(O)c1` [Compound 2n, 2-Acetyl-5-butoxyphenol], the IC50 at MAO-B [1] was found to be 0.103 ± 0.015 µM; at recombinant human MAO-A, 8.65 ± 1.04 µM. Further, the “SI (selectivity index, IC50(MAO-A)/IC50(MAO-B))” value at MAO-B [1] turned out to be 84.

On to `CCCCCCCOc1ccc(C(C)=O)c(O)c1` [Compound 2o, 2-Acetyl-5-heptyloxyphenol], for which, on MAO-B [1], the IC50 stood at 0.156 ± 0.05 µM and the “SI (selectivity index, IC50(MAO-A)/IC50(MAO-B))” value turned out to be 387. For the same molecule, the concentration for half-maximal inhibition (IC50) at recombinant human MAO-A was found to be 60.4 ± 8 µM.

In the case of `CC(=O)c1ccc(OCc2ccccc2)cc1` [Compound 3a, 4′-Benzyloxyacetophenone], on MAO-B [1], the IC50 was determined as 0.027 ± 0.003 µM and the “SI (selectivity index, IC50(MAO-A)/IC50(MAO-B))” value is 722. Also, the half-inhibitory concentration (IC50) at recombinant human MAO-A worked out at 19.5 ± 2.47 µM.

Consider `CCC(=O)c1ccc(OCc2ccccc2)cc1O` [Compound 3b, 2-Propanoyl-5-benzyloxyphenol], for which the IC50 on MAO-B [1] was 0.004 ± 0.001 µM; at recombinant human MAO-A it was > 17.7 µM and 38.2 µM. Moreover, the “SI (selectivity index, IC50(MAO-A)/IC50(MAO-B))” value at MAO-B [1] is on record as 9,550.

On to `CC(=O)c1ccc(O)cc1O` [Compound 4, 2′,4′-dihydroxyacetophenone, reference compound], for which, on MAO-B [1], the IC50 stood at 39.7 ± 5.03 µM and the “SI (selectivity index, IC50(MAO-A)/IC50(MAO-B))” value stood at 1.2. Further, the “Fold weaker as MAO-B inhibitor than compound 2b” value at MAO-B [1] (relative to weakest inhibitor of the series, 2b (IC50 = 0.157 µM)) stood at 250 fold. On recombinant human MAO-A, the half-inhibitory concentration (IC50) stood at 47.7 ± 3.12 µM.

The IC50 is the concentration at which inhibition is half-maximal.

Source of the values: article PMC4507791 (Drug Design, Development and Therapy, 2015).
